Where “and” joins values, the source holds several entries; their conditions need not be identical. Equal values may be shown once.
Assay: Safety and tolerability, study 1 MAD part
Assay type: in vivo, human
Experimental: Safety and tolerability were assessed on the basis of adverse events (AEs), which were monitored throughout both studies. Additional safety assessments included vital signs (including supine [and standing in study 2] heart rate, systolic and diastolic blood pressure, and oral body temperature), 12‐lead electrocardiogram (ECG), clinical laboratory tests (hematology, coagulation [study 2 only], serum/plasma chemistry, urinalysis, urine drug screen, serology, and alcohol breath test), and a comprehensive physical examination. […] In the MAD part of study 1, all additional safety assessments were performed at screening; days 1, 2, 8, 14, and 15; and at follow‐up. In study 2, additional safety assessments were performed at screening (between 21 and 2 days before the first study drug administration); days 1, 2, 5, 10, 14, 15, and 20 (clinical laboratory tests were not performed on day 20); at early discontinuation; and at follow‐up. For study 2, renal function tests (measurement of estimated creatinine clearance rate using the Cockcroft‐Gault equation) were also included in the clinical laboratory tests for safety assessment.
In both studies, the safety analysis was descriptive and focused on changes from baseline and treatment‐emergent findings.

O=c1nc(OC[C@@H]2COCCO2)cc2n1CCc1cc(C#CC3CC3)ccc1-2 [GLPG1205, 9‐cyclopropylethynyl‐2‐((S)‐1‐[1,4]dioxan‐2‐ylmethoxy)‐6,7‐dihydropyrimido[6,1‐a]isoquinolin‐4‐one]
Abdominal discomfort (TEAE) (50 mg QD (n = 6)): 0 number of subjects (%) | Abdominal distension (TEAE) (50 mg QD (n = 6)): 0 number of subjects (%) | Abdominal pain (TEAE) (50 mg QD (n = 6)): 0 number of subjects (%) | Abdominal pain upper (TEAE) (50 mg QD (n = 6)): 0 number of subjects (%) | Any TEAE (50 mg QD (n = 6)): 2 (33.3) number of subjects (%) | Decreased appetite (TEAE) (50 mg QD (n = 6)): 0 number of subjects (%) | Dehydration (TEAE) (50 mg QD (n = 6)): 0 number of subjects (%) | Diarrhea (TEAE) (50 mg QD (n = 6)): 1 (16.7) number of subjects (%) | Disturbance in attention (TEAE) (50 mg QD (n = 6)): 0 number of subjects (%) | Dizziness (TEAE) (50 mg QD (n = 6)): 0 number of subjects (%) | Dry skin (TEAE) (50 mg QD (n = 6)): 1 (16.7) number of subjects (%) | Ecchymosis (TEAE) (50 mg QD (n = 6)): 0 number of subjects (%) | Erythema (TEAE) (50 mg QD (n = 6)): 0 number of subjects (%) | Fatigue (TEAE) (50 mg QD (n = 6)): 0 number of subjects (%) | Flatulence (TEAE) (50 mg QD (n = 6)): 0 number of subjects (%) | Gastrointestinal disorders (TEAE) (50 mg QD (n = 6)): 1 (16.7) number of subjects (%) | General disorders and administration site conditions (TEAE) (50 mg QD (n = 6)): 0 number of subjects (%) | Headache (TEAE) (50 mg QD (n = 6)): 0 number of subjects (%) | Hot flush (TEAE) (50 mg QD (n = 6)): 0 number of subjects (%) | Metabolism and nutrition disorders (TEAE) (50 mg QD (n = 6)): 0 number of subjects (%) | Musculoskeletal and connective tissue disorders (TEAE) (50 mg QD (n = 6)): 0 number of subjects (%) | Musculoskeletal stiffness (TEAE) (50 mg QD (n = 6)): 0 number of subjects (%) | Nausea (TEAE) (50 mg QD (n = 6)): 0 number of subjects (%) | Nervous system disorders (TEAE) (50 mg QD (n = 6)): 0 number of subjects (%) | Oropharyngeal pain (TEAE) (50 mg QD (n = 6)): 0 number of subjects (%) | Respiratory, thoracic, and mediastinal disorders (TEAE) (50 mg QD (n = 6)): 0 number of subjects (%) | Skin and subcutaneous tissue disorders (TEAE) (50 mg QD (n = 6)): 1 (16.7) number of subjects (%) | Somnolence (TEAE) (50 mg QD (n = 6)): 0 number of subjects (%) | Vascular disorders (TEAE) (50 mg QD (n = 6)): 0 number of subjects (%) | Vomiting (TEAE) (50 mg QD (n = 6)): 0 number of subjects (%) | subjects with treatment-emergent abnormality during physical examination (50 mg once daily): 1 n | Abdominal discomfort (TEAE) (100 mg QD (n = 6)): 1 (16.7) number of subjects (%) | Abdominal distension (TEAE) (100 mg QD (n = 6)): 0 number of subjects (%) | Abdominal pain (TEAE) (100 mg QD (n = 6)): 0 number of subjects (%) | Abdominal pain upper (TEAE) (100 mg QD (n = 6)): 1 (16.7) number of subjects (%) | Any TEAE (100 mg QD (n = 6)): 5 (83.3) number of subjects (%) | Decreased appetite (TEAE) (100 mg QD (n = 6)): 0 number of subjects (%) | Dehydration (TEAE) (100 mg QD (n = 6)): 0 number of subjects (%) | Diarrhea (TEAE) (100 mg QD (n = 6)): 2 (33.3) number of subjects (%) | Disturbance in attention (TEAE) (100 mg QD (n = 6)): 0 number of subjects (%) | Dizziness (TEAE) (100 mg QD (n = 6)): 0 number of subjects (%) | Dry skin (TEAE) (100 mg QD (n = 6)): 0 number of subjects (%) | Ecchymosis (TEAE) (100 mg QD (n = 6)): 1 (16.7) number of subjects (%) | Erythema (TEAE) (100 mg QD (n = 6)): 1 (16.7) number of subjects (%) | Fatigue (TEAE) (100 mg QD (n = 6)): 0 number of subjects (%) | Flatulence (TEAE) (100 mg QD (n = 6)): 0 number of subjects (%) | Gastrointestinal disorders (TEAE) (100 mg QD (n = 6)): 3 (50.0) number of subjects (%) | General disorders and administration site conditions (TEAE) (100 mg QD (n = 6)): 0 number of subjects (%) | Headache (TEAE) (100 mg QD (n = 6)): 3 number of subjects (%) and 3 (50.0) number of subjects (%) | Hot flush (TEAE) (100 mg QD (n = 6)): 0 number of subjects (%) | Metabolism and nutrition disorders (TEAE) (100 mg QD (n = 6)): 0 number of subjects (%) | Musculoskeletal and connective tissue disorders (TEAE) (100 mg QD (n = 6)): 0 number of subjects (%) | Musculoskeletal stiffness (TEAE) (100 mg QD (n = 6)): 0 number of subjects (%) | Nausea (TEAE) (100 mg QD (n = 6)): 1 (16.7) number of subjects (%) | Nervous system disorders (TEAE) (100 mg QD (n = 6)): 3 (50.0) number of subjects (%) | Oropharyngeal pain (TEAE) (100 mg QD (n = 6)): 1 (16.7) number of subjects (%) | Respiratory, thoracic, and mediastinal disorders (TEAE) (100 mg QD (n = 6)): 1 (16.7) number of subjects (%) | Skin and subcutaneous tissue disorders (TEAE) (100 mg QD (n = 6)): 2 (33.3) number of subjects (%) | Somnolence (TEAE) (100 mg QD (n = 6)): 0 number of subjects (%) | Vascular disorders (TEAE) (100 mg QD (n = 6)): 0 number of subjects (%) | Vomiting (TEAE) (100 mg QD (n = 6)): 0 number of subjects (%) | subjects with treatment-emergent abnormality during physical examination (100 mg once daily): 1 n | Abdominal discomfort (TEAE) (200 mg QD (n = 6)): 1 (16.7) number of subjects (%) | Abdominal distension (TEAE) (200 mg QD (n = 6)): 1 (16.7) number of subjects (%) | Abdominal pain (TEAE) (200 mg QD (n = 6)): 1 (16.7) number of subjects (%) | Abdominal pain upper (TEAE) (200 mg QD (n = 6)): 0 number of subjects (%) | Any TEAE (200 mg QD (n = 6)): 5 (83.3) number of subjects (%) | Decreased appetite (TEAE) (200 mg QD (n = 6)): 1 (16.7) number of subjects (%) | Dehydration (TEAE) (200 mg QD (n = 6)): 2 (33.3) number of subjects (%) | Diarrhea (TEAE) (200 mg QD (n = 6)): 1 (16.7) number of subjects (%) | Disturbance in attention (TEAE) (200 mg QD (n = 6)): 1 (16.7) number of subjects (%) | Dizziness (TEAE) (200 mg QD (n = 6)): 1 (16.7) number of subjects (%) | Dry skin (TEAE) (200 mg QD (n = 6)): 0 number of subjects (%) | Ecchymosis (TEAE) (200 mg QD (n = 6)): 0 number of subjects (%) | Erythema (TEAE) (200 mg QD (n = 6)): 0 number of subjects (%) | Fatigue (TEAE) (200 mg QD (n = 6)): 3 (50.0) number of subjects (%) | Flatulence (TEAE) (200 mg QD (n = 6)): 1 (16.7) number of subjects (%) | Gastrointestinal disorders (TEAE) (200 mg QD (n = 6)): 4 (66.7) number of subjects (%) | General disorders and administration site conditions (TEAE) (200 mg QD (n = 6)): 3 (50.0) number of subjects (%) | Headache (TEAE) (200 mg QD (n = 6)): 4 number of subjects (%) and 4 (66.7) number of subjects (%) | Hot flush (TEAE) (200 mg QD (n = 6)): 1 (16.7) number of subjects (%) | Metabolism and nutrition disorders (TEAE) (200 mg QD (n = 6)): 2 (33.3) number of subjects (%) | Musculoskeletal and connective tissue disorders (TEAE) (200 mg QD (n = 6)): 1 (16.7) number of subjects (%) | Musculoskeletal stiffness (TEAE) (200 mg QD (n = 6)): 1 (16.7) number of subjects (%) | Nausea (TEAE) (200 mg QD (n = 6)): 2 (33.3) number of subjects (%) | Nervous system disorders (TEAE) (200 mg QD (n = 6)): 5 (83.3) number of subjects (%) | Oropharyngeal pain (TEAE) (200 mg QD (n = 6)): 2 (33.3) number of subjects (%) | Respiratory, thoracic, and mediastinal disorders (TEAE) (200 mg QD (n = 6)): 2 (33.3) number of subjects (%) | Skin and subcutaneous tissue disorders (TEAE) (200 mg QD (n = 6)): 0 number of subjects (%) | Somnolence (TEAE) (200 mg QD (n = 6)): 1 (16.7) number of subjects (%) | Vascular disorders (TEAE) (200 mg QD (n = 6)): 1 (16.7) number of subjects (%) | Vomiting (TEAE) (200 mg QD (n = 6)): 2 (33.3) number of subjects (%) | subjects with treatment-emergent abnormality during physical examination (200 mg once daily): 2 n | TEAE leading to study drug withdrawal: abdominal pain (200-mg once-daily group): 1 n | TEAE leading to study drug withdrawal: decreased appetite (200-mg once-daily group): 1 n | TEAE leading to study drug withdrawal: dehydration (200-mg once-daily group): 2 n | TEAE leading to study drug withdrawal: diarrhea (200-mg once-daily group): 1 n | TEAE leading to study drug withdrawal: dizziness (200-mg once-daily group): 1 n | TEAE leading to study drug withdrawal: fatigue (200-mg once-daily group): 2 n | TEAE leading to study drug withdrawal: flatulence (200-mg once-daily group): 1 n | TEAE leading to study drug withdrawal: headache (200-mg once-daily group): 3 n | TEAE leading to study drug withdrawal: musculoskeletal stiffness (200-mg once-daily group): 1 n | TEAE leading to study drug withdrawal: nausea (200-mg once-daily group): 1 n | TEAE leading to study drug withdrawal: vomiting (200-mg once-daily group): 2 n | subjects in whom study drug was withdrawn (200-mg once-daily group): 3 subjects | subjects with abnormally high hematocrit, hemoglobin and red blood cell count (200-mg once-daily group, day 8): Two | maximum tolerated dose (multiple doses, healthy male subjects): 100 mg once daily

— paper PMC8453901, “GLPG1205, a GPR84 Modulator: Safety, Pharmacokinetics, and Pharmacodynamics in Healthy Subjects” (Clinical Pharmacology in Drug Development, 2021)
